Legend:
PDPK1 [1] = target: T1, PDPK1 (Homo sapiens, UniProt O15530); assay: PDK1-OMNIA kinase assay (ST28-Sox peptide); assay type: biochemical; design: purchased Invitrogen, BPS or SignalChem P3001 (Invitrogen), 40080 (BPS), P14-10H (SignalChem); conditions: PDPK1 enzyme pre-incubated 30 min at 25° C. with compound; [ATP]=5 μM; ST28-Sox peptide substrate; read-out: Inhibition/Modification Designation (IC50, PDK1-OMNIA)
T1 sequence (O15530 1-556): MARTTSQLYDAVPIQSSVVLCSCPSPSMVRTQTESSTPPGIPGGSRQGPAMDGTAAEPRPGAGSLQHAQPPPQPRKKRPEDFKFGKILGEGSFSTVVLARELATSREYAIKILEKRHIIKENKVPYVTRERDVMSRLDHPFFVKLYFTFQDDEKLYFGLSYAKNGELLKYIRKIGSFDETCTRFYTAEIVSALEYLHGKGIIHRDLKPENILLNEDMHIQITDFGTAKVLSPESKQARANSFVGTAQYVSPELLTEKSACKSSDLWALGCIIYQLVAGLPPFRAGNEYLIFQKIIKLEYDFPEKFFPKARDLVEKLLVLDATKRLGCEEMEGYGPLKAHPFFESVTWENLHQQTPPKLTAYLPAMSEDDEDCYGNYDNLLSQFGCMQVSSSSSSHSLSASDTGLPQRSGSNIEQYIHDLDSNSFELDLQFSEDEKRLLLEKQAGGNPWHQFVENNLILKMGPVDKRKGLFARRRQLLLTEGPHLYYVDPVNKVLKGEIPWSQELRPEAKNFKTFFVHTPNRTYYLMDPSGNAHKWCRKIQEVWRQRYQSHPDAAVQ
Description: Briefly, a 10× stock of PDPK1 enzyme from Invitrogen (P3001) or BPS (40080) or SignalChem (P14-10H), 1.13×ATP (AS001A) and ST28-Sox peptide substrate (KNZ1281C) were prepared in 1× kinase reaction buffer consisting of 20 mM Tris, pH 7.5, 5 mM MgCl2, 1 mM EGTA, 5 mM β-glycerophosphate, 5% glycerol (10× stock, KB002A) and 0.2 mM DTT (DS001A). 5 μL of enzyme were pre-incubated in a Corning (#3574) 384-well, white, non-binding surface microtiter plate (Corning, N.Y.) for 30 min at 25° C. with a 0.5 μL volume of 50% DMSO and serially diluted compounds prepared in 50% DMSO. Kinase reactions were started with the addition of 45 […] of the ST28-Sox peptide substrate and monitored every 71 seconds for 30-60 minutes at λex360/λem485 in a Synergy4 plate reader from BioTek (Winooski, Vt.). At the conclusion of each assay, progress curves from each well were examined for linear reaction kinetics and fit statistics (R^2, 95% confidence interval, absolute sum of squares). Post-lag velocity (+10 minutes to 20+ minutes) from each reaction was estimated from the slope of a plot of relative fluorescence units vs time (minutes) and normalized to the no enzyme and no inhibitor control groups for % Inhibition. The resulting inhibition values were then plotted against inhibitor concentration to estimate IC50 from log [Inhibitor] vs Response, Variable Slope model in GraphPad Prism from GraphPad Software (San Diego, Calif.).
[Reagent] used in provisional protocol(s): Invitrogen—[PDPK1]=5-10 nM, [ATP]=5 μM and [ST28-Sox]=5 μM or 10 μM (ATP KMapp=4-6 μM); BPS—[PDPK1]=10-15 nM, [ATP]=5 μM and [ST28-Sox]=10 μM (ATP KMapp=3-5 μM); SignalChem—[PDPK1]=5-10 nM, [ATP]=5 μM and [ST28-Sox]=5 μM or 10 μM (ATP KMapp ND)

PDPK1 [2] = target: T1, PDPK1; assay: MALDI MS of intact PDPK1 incubated with compound; assay type: binding; design: purchased Millipore 14-452; conditions: for Number of Modifications on Whole Protein: PDPK1 whole protein, MS
Description: (§1) Intact PDPK1 was incubated for 3 hr at a 10-fold excess of compound XI-27 to protein. 3 μL aliquots of the samples were diluted with 10 μL of 0.1% TFA prior to micro C4 Ziptipping directly onto the MALDI target plate using sinapinic acid as the desorption matrix (10 mg/mL in 0.1% TFA:Acetonitrile 50:50).
as §1, with “XI-21” for “XI-27”
For example, Table 7 lists non-limiting examples of compounds that modify PDPK1 whole protein, the number of modifications per protein and the lysines modified within the protein. […] Also, the lysine modified in PDPK-1 by XI-27, XI-26, XI-22, and XI-21 are not the same for each compound. Without wishing to be bound to any particular theory, the position of the warhead, as presented by the scaffold and tether to the lysines in the binding site, effects different results on the modification of the different lysines in the binding site of PDPK-1.

HCT116 = assay: HCT116-WB assay; assay type: cell-based; conditions: Homo sapiens, HCT-116; read-out: HCT116-WB Inhibition Designation
p110α/p85α (PI3Kα) = target: T2, p110α/p85α (PI3Kα) (Homo sapiens, UniProt P42336); assay: HTRF assay, p110α/p85α; assay type: biochemical; conditions: read-out: PI3Kα-HTRF-IC50 nM Inhibition Designation
T2 construct: purchased BPS Bioscience or Millipore 40620 (BPS Bioscience) or 14-602 (Millipore)
Description: HTRF Assay Protocol for Potency Assessment Against the Active Form of p110α/p85α:
The mechanics of the assay platform are best described by the vendor (Millipore, Billerica, Mass.) on their website at the following URL: http://www.millipore.com/coa/tech1/74jt4z.
Briefly, Stop solution (Stop A, #33-007 and Stop B, #33-009; 3:1 ratio) and Detection Mix (DMC, #33-015 with DMA, #33-011 and DMB, #33-013; 18:1:1 ratio) were prepared as recommended by the manufacturer ˜2 hrs prior to use. […] Lipid kinase reactions were started with the addition of 5 μL of ATP solution, mixed for 15 sec on a rotary plate shaker and incubated for 15-30 minutes at 25° C. Next, reactions were stopped with a 5 μL addition of Stop solution followed by a 5 μL volume of Detection Mix. […] At the conclusion of each assay, the HTRF ratio from fluorescence emission values for each well was calculated and % Inhibition determined from averaged controls wells. % Inhibition values for each compound re then plotted against inhibitor concentration to estimate IC50 from log [Inhibitor] vs Response, Variable Slope model in GraphPad Prism from GraphPad Software (San Diego, Calif.).

p120γ (PI3Kγ) = target: T3, p120γ (PI3Kγ) (Homo sapiens, UniProt P48736); assay: HTRF assay, p120γ; assay type: biochemical; conditions: PI3Kγ; read-out: PI3Kγ HTRF IC50 Inhibition Designation
T3 construct: purchased BPS Bioscience 40625
Outline: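 End-point competition-binding HTRF with 1-4 nM enzyme and 10 μM di-C8-PIP2, pre-incubated with compound 30 min at 25° C, then 50 μM ATP for 15-30 min at 25° C. HTRF ratio (665/620 nm) gave % inhibition; IC50 from variable-slope log-dose fit.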

T2 sequence (P42336 whole entry): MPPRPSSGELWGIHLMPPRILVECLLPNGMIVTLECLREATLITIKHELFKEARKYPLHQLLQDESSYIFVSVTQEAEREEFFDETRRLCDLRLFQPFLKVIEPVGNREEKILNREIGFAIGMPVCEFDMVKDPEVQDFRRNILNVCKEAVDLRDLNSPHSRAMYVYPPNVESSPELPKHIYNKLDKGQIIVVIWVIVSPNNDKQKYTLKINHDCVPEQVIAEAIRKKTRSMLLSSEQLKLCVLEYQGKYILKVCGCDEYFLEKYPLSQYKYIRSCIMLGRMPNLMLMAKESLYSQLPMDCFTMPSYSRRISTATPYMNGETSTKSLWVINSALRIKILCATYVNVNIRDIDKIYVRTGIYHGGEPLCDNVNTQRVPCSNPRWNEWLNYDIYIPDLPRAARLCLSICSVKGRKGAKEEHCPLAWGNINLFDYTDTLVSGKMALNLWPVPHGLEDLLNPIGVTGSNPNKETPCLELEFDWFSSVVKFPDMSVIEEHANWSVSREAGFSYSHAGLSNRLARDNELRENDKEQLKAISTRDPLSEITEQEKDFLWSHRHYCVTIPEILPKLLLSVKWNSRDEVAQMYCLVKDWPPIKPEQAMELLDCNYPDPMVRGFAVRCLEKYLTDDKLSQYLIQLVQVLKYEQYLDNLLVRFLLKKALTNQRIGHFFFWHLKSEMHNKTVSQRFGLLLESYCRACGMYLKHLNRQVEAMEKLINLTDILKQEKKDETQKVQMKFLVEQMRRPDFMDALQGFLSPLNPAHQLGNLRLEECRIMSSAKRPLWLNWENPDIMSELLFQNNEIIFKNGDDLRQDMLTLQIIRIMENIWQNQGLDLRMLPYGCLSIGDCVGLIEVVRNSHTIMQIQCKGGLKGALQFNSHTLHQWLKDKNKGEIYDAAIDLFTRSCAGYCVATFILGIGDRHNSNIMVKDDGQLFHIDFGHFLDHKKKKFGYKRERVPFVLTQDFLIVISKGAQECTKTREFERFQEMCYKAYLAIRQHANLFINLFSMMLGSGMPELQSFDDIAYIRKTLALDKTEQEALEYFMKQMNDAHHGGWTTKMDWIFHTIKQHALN
T2 sequence (P27986 whole entry partner): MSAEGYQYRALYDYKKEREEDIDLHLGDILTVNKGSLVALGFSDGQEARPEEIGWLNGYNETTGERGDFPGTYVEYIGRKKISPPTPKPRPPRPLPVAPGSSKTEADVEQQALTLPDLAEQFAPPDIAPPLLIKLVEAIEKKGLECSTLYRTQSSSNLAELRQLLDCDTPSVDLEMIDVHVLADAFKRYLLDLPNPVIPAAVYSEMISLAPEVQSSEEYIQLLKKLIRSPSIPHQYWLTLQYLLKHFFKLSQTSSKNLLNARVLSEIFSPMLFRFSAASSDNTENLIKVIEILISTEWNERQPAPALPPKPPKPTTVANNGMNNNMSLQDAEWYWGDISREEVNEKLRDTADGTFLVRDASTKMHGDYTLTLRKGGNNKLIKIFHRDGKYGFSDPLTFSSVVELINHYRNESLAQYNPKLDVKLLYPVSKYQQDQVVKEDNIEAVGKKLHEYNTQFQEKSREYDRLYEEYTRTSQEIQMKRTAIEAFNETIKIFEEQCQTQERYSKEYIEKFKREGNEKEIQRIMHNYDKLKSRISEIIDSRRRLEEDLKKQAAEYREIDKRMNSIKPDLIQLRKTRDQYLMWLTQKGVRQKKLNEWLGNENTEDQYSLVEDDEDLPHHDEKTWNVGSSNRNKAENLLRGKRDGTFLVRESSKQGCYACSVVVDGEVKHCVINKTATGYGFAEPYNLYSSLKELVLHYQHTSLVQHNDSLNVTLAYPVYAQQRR
T3 sequence (P48736 whole entry): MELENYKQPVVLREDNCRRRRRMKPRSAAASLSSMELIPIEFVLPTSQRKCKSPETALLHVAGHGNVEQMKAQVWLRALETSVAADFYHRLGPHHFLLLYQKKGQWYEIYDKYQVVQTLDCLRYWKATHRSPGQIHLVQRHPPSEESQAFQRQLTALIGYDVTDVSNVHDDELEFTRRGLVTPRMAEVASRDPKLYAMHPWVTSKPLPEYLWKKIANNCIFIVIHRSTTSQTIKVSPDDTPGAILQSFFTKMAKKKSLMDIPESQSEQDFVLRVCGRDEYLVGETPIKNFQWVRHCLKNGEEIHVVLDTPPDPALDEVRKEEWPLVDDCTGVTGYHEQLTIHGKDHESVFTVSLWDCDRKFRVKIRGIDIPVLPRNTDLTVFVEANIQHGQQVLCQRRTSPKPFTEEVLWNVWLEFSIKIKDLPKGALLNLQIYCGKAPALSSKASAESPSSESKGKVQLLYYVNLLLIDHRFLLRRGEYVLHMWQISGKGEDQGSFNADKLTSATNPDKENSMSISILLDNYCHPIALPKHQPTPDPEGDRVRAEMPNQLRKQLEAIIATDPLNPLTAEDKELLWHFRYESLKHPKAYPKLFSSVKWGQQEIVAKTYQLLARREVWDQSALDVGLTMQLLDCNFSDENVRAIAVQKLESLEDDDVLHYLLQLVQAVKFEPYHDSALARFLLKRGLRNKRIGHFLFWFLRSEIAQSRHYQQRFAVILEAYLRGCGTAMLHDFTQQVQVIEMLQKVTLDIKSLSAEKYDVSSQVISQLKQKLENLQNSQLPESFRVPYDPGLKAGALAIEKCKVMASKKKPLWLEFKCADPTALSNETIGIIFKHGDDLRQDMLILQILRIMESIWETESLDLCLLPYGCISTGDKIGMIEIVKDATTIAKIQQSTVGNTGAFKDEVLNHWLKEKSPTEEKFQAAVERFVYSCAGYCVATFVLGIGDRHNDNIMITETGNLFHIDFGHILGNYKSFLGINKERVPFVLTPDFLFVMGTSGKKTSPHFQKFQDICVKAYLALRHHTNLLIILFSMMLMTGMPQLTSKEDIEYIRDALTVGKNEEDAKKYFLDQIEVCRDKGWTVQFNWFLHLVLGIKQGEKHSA

Compound	IC50 (PDPK1 [1]) [µM]	modification of PDPK1 (PDPK1 [2]; 3 hr, 10-fold excess)	mass shift of PDPK1 (PDPK1 [2]; 3 hr, 10-fold excess of compound to protein) [Da]	Number of Modifications on Whole Protein (PDPK1 [2])	IC50 (HCT116) [µM]	IC50 (p110α/p85α (PI3Kα)) [nM]	IC50 (p120γ (PI3Kγ)) [µM]
CC(C)(C(N)=O)C(=O)NCCCNc1nc(Nc2cccc(NC(=O)C3CSC(=O)C3)c2)ncc1Br (stereo not drawn) [XI-27]	< 0.01	complete modification	568	1			
C=CC(=O)Nc1ccc(Nc2ncc(Br)c(NCCCNC(=O)C(C)(C)C(N)=O)n2)cc1 [XI-39]	0.01 to 0.1			1			
C=CC(=O)Nc1cccc(Nc2ncc(Br)c(NCCCNC(=O)C(C)(C)C(N)=O)n2)c1 [XI-53]				1			
O=C1CC[C@H](C(=O)N2CC=C(c3cc4nc(-c5cccc(O)c5)nc(N5CCOCC5)c4s3)CC2)O1 [XXII-2]					0.1 to 1	10 to 100	0.1 to 1
C=CC(=O)N1CCN(CC#Cc2cc3nc(-c4cccc(O)c4)nc(N4CCOCC4)c3s2)CC1 [XXII-3]					0.1 to 1		0.1 to 1
CN(Cc1cc2nc(-c3cccc(O)c3)nc(N3CCOCC3)c2s1)C(=O)[C@@H]1CCC(=O)O1 [XXII-6]					0.01 to 0.1	10 to 100	0.1 to 1
CN(Cc1cc2nc(-c3cccc(O)c3)nc(N3CCOCC3)c2s1)C(=O)[C@H]1CCC(=O)O1 [XXII-7]					0.01 to 0.1	100 to 1000	0.1 to 1
CC(C)Oc1c(N(C)Cc2cc3nc(-c4cccc(O)c4)nc(N4CCOCC4)c3s2)c(=O)c1=O [XXII-11]					0.01 to 0.1	10 to 100	0.1 to 1
CC1(C)Cc2nc(N3CCOc4ccc(-c5ccc(C(=O)N6C[C@@H]7C[C@H]6C(=O)O7)cc5)cc43)sc2C(=O)N1 [XXIII-8, (1S,4S)-5-(4-(4-(6,6-dimethyl-4-oxo-4,5,6,7-tetrahydrothiazolo[5,4-c]pyridin-2-yl)-3,4-dihydro-2H-benzo[b][1,4]oxazin-6-yl)benzoyl)-2-oxa-5-azabicyclo[2.2.1]heptan-3-one]					1 to 10	100 to 1000	0.1 to 1

— US11542492B2 (Celgene CAR LLC, priority 2009, dated 2023)
